Laboratory results: patent US7488425B2, “Method for photolyzing organic matter and method for treating wastewater” (Nisshinbo Industries, Inc., priority 2004, dated 2009)
Where a name gives a salt, the structure may show the parent alone.

What was measured:
[1] = Mixing with simple distilled water (phase separation, hydrophobicity); type: physicochemical
Excerpt: As used herein, “hydrophobic” refers to the property of, after being mixed or stirred with water, separating again into two phases on standing. While it suffices for the hydrophobic ionic liquid to have this quality, when the above photolytic process is employed for the subsequently described wastewater treatment or the like, a hydrophobic ionic liquid with a lower solubility in water will result in a smaller loss of ionic liquid during wastewater treatment and enable treated water having a higher degree of cleanliness to be obtained.
(§1) The solubility in simple distilled water (25° C.) was about 1.5 wt %.

[2] = Solubility of the ionic liquid in simple distilled water; type: physicochemical; conditions: 25° C.
Procedure: as §1

behaviour when mixed with simple distilled water [1] | solubility in simple distilled water [2] | Structure (SMILES)
forms a homogeneous phase |  | CCn1cc[n+](C)c1.O=S(=O)([O-])C(F)(F)F [EMIMTfO, 1-ethyl-3-methylimidazolium trifluoromethanesulfonate, reference compound]
separated into two phases | about 1.5 wt % | CC[N+](C)(CC)CCOC [ionic liquid (2), Bis(trifluoromethanesulfonyl)imide Salt of N,N-Diethyl-N-methyl-N-(2-methoxyethyl)ammonium]
